# In US7625926B2, “P-glycoprotein inhibitor, method for preparing the same and pharmaceutical composition comprising the same” (Hanmi Pharm. Co., Ltd, priority 2003, dated 2009):
# Tested on: MCF-7/Dox cell, which is MCF-7 expressing p-glycoprotein
# Details: enhancement of anticancer activity of paclitaxel against MCF7/Dox; ED50 of paclitaxel alone / ED50 with 50 nM test compound
# Protocol: The cells were subcultured in 5% FBS (fetal bovine serum)/RPMI1640 medium supplemented with glutamine 2 mmol, sodium bicarbonate 3.7 g/L and gentamicin 10 mg/L at 37° C. in 5% CO2 incubator under 100% humidity, and collected using a 0.25% trypsin solution containing 3 mM 1,2-cyclohenxandiamine tetraacetic acid.
# The collected cells were plated on a 96 well flat-bottomed plate at a density of 2×10^3 cells/well, and incubated in the same medium for 24 hours. Paclitaxel, an anticancer agent, was diluted with the same medium to obtain 10^−11˜10^−6 M test solutions. […] After incubating for 72 hours, the culture medium was removed, each well was treated with 10% trichloroacetic acid for 1 hour to fix the cells, washed with water, and dried at room temperature. After adding a dyeing solution containing 1% acetic acid with 0.4% SRB (sulforhodamine B) thereto, the wells were kept at room temperature for 30 min, and washed with 1% acetic acid to remove remaining SRB. […] Also, the enhancement of the anticancer activity of paclitaxel against MCF7/Dox (resistant cancer cells) was measured by determining ED^PAC50/ED50, wherein ED^PAC50 is the value determined for the case of paclitaxel alone.
row,Structure (SMILES),ED50^PAC/ED50
1,"COc1cc2c(cc1OC)CN(CCc1ccc(-n3nnc(-c4cc(OC)c(OC)cc4NC(=O)c4ccc5ccccc5n4)n3)cc1)CC2 [Example 2, quinoline-2-carboxylic acid [2-(2-{4-[2-(6,7-dimethoxy-3,4-dihydro-1H-isoquinolin-2-yl)-ethyl]-phenyl}-2H-tetrazol-5-yl)-4,5-dimethoxy-phenyl]-amide]",2.7
2,"COc1cc2c(cc1OC)CN(CCc1ccc(-n3nnc(-c4cc(OC)c(OC)cc4NC(=O)c4cc5ccccc5cn4)n3)cc1)CC2 [Example 3, isoquinoline-3-carboxylic acid [2-(2-{4-[2-(6,7-dimethoxy-3,4-dihydro-1H-isoquinolin-2-yl)-ethyl]-phenyl}-2H-tetrazol-5-yl)-4,5-dimethoxy-phenyl]-amide]",3.5
3,"COc1cc2c(cc1OC)CN(CCc1ccc(-n3nnc(-c4cc(OC)c(OC)cc4NC(=O)c4cccc5cccnc45)n3)cc1)CC2 [Example 4, quinoline-8-carboxylic acid [2-(2-{4-[2-(6,7-dimethoxy-3,4-dihydro-1H-isoquinolin-2-yl)-ethyl]-phenyl}-2H-tetrazol-5-yl)-4,5-dimethoxy-phenyl]-amide]",4.3
4,"COc1cc2c(cc1OC)CN(CCc1ccc(-n3nnc(-c4cc(OC)c(OC)cc4NC(=O)c4nccc5ccccc45)n3)cc1)CC2 [Example 5, isoquinoline-1-carboxylic acid [2-(2-{4-[2-(6,7-dimethoxy-3,4-dihydro-1H-isoquinolin-2-yl)-ethyl]-phenyl}-2H-tetrazol-5-yl)-4,5-dimethoxy-phenyl]-amide]",1.8
5,"COc1cc2c(cc1OC)CN(CCc1ccc(-n3nnc(-c4cc(OC)c(OC)cc4NC(=O)c4ccnc5ccccc45)n3)cc1)CC2 [Example 6, quinoline-4-carboxylic acid [2-(2-{4-[2-(6,7-dimethoxy-3,4-dihydro-1H-isoquinolin-2-yl)-ethyl]-phenyl}-2H-tetrazol-5-yl)-4,5-dimethoxy-phenyl]-amide]",3.3
6,"COc1cc2c(cc1OC)CN(CCc1ccc(-n3nnc(-c4cc(OC)c(OC)cc4NC(=O)c4cc(OC)c5ccccc5n4)n3)cc1)CC2 [Example 7, 4-methoxy-quinoline-2-carboxylic acid [2-(2-{4-[2-(6,7-dimethoxy-3,4-dihydro-1H-isoquinolin-2-yl)-ethyl]-phenyl}-2H-tetrazol-5-yl)-4,5-methoxy-phenyl]-amide]",3.3
7,"COc1cc2c(cc1OC)CN(CCc1ccc(-n3nnc(-c4cc(OC)c(OC)cc4NC(=O)c4cnc5ccccc5n4)n3)cc1)CC2 [Example 8, quinoxaline-2-carboxylic acid [2-(2-{4-[2-(6,7-dimethoxy-3,4-dihydro-1H-isoquinolin-2-yl)-ethyl]-phenyl}-2H-tetrazol-5-yl)-4,5-dimethoxy-phenyl]-amide]",22.0
8,"COc1cc2c(cc1OC)CN(CCc1ccc(-n3nnc(-c4cc(OC)c(OC)cc4NC(=O)c4ccccn4)n3)cc1)CC2 [Example 9, pyridine-2-carboxylic acid [2-(2-{4-[2-(6,7-dimethoxy-3,4-dihydro-1H-isoquinolin-2-yl)-ethyl]-phenyl}-2H-tetrazol-5-yl)-4,5-dimethoxy-phenyl]-amide]",3.1
9,"COc1cc2c(cc1OC)CN(CCc1ccc(-n3nnc(-c4cc(OC)c(OC)cc4NC(=O)c4cccnc4)n3)cc1)CC2 [Example 10, N-[2-(2-{4-[2-(6,7-dimethoxy-3,4-dihydro-1H-isoquinolin-2-yl)-ethyl]-phenyl}-2H-tetrazol-5-yl)-4,5-dimethoxy-phenyl]-nicotinamide]",3.0
10,"COc1cc2c(cc1OC)CN(CCc1ccc(-n3nnc(-c4cc(OC)c(OC)cc4NC(=O)c4ccncc4)n3)cc1)CC2 [Example 11, N-[2-(2-{4-[2-(6,7-dimethoxy-3,4-dihydro-1H-isoquinolin-2-yl)-ethyl]-phenyl}-2H-tetrazol-5-yl)-4,5-dimethoxy-phenyl]-isonicotinamide]",3.2
11,"COc1cc2c(cc1OC)CN(CCc1ccc(-n3nnc(-c4cc(OC)c(OC)cc4NC(=O)c4cnccn4)n3)cc1)CC2 [Example 12, pyrazine-2-carboxylic acid [2-(2-{4-[2-(6,7-dimethoxy-3,4-dihydro-1H-isoquinolin-2-yl)-ethyl]-phenyl}-2H-tetrazol-5-yl)-4,5-dimethoxy-phenyl]-amide]",3.0
12,"COc1cc2c(cc1OC)CN(CCc1ccc(-n3nnc(-c4cc(OC)c(OC)cc4NC(=O)c4ccccc4)n3)cc1)CC2 [Example 13, N-[2-(2-{4-[2-(6,7-dimethoxy-3,4-dihydro-1H-isoquinolin-2-yl)-ethyl]-phenyl}-2H-tetrazol-5-yl)-4,5-dimethoxy-phenyl]-benzamide]",3.4
13,"COc1cc2c(cc1OC)CN(CCc1ccc(-n3nnc(-c4cc(OC)c(OC)cc4NC(=O)c4ccc5ccccc5c4)n3)cc1)CC2 [Example 14, naphthalene-2-carboxylic acid [2-(2-{4-[2-(6,7-dimethoxy-3,4-dihydro-1H-isoquinolin-2-yl)-ethyl]-phenyl}-2H-tetrazol-5-yl)-4,5-dimethoxy-phenyl]-amide]",2.6
14,COc1cc2c(cc1OC)CN(CCc1ccc(-n3nnc(-c4cc(OC)c(OC)cc4NC(=O)c4ccccc4F)n3)cc1)CC2 [Example 15],4.1
15,"COc1cc2c(cc1OC)CN(CCc1ccc(-n3nnc(-c4cc(OC)c(OC)cc4NC(=O)c4cccc(F)c4)n3)cc1)CC2 [Example 16, N-[2-(2-{4-[2-(6,7-dimethoxy-3,4-dihydro-1H-isoquinolin-2-yl)-ethyl]-phenyl}-2H-tetrazol-5-yl)-4,5-dimethoxy-phenyl]-3-fluoro-benzamide]",6.7
16,"COc1cc2c(cc1OC)CN(CCc1ccc(-n3nnc(-c4cc(OC)c(OC)cc4NC(=O)c4ccc(F)cc4)n3)cc1)CC2 [Example 17, N-[2-(2-{4-[2-(6,7-dimethoxy-3,4-dihydro-1H-isoquinolin-2-yl)-ethyl]-phenyl}-2H-tetrazol-5-yl)-4,5-dimethoxy-phenyl]-4-fluoro-benzamide]",4.0
17,"COc1cc2c(cc1OC)CN(CCc1ccc(-n3nnc(-c4cc(OC)c(OC)cc4NC(=O)c4ccc(F)c(F)c4)n3)cc1)CC2 [Example 18, N-[2-(2-{4-[2-(6,7-dimethoxy-3,4-dihydro-1H-isoquinolin-2-yl)-ethyl]-phenyl}-2H-tetrazol-5-yl)-4,5-dimethoxy-phenyl]-3,4-difluoro-benzamide]",3.7
18,"COc1cc2c(cc1OC)CN(CCc1ccc(-n3nnc(-c4cc(OC)c(OC)cc4NC(=O)c4ccsc4)n3)cc1)CC2 [Example 19, thiophene-3-carboxylic acid [2-(2-{4-[2-(6,7-dimethoxy-3,4-dihydro-1H-isoquinolin-2-yl)-ethyl]-phenyl}-2H-tetrazol-5-yl)-4,5-dimethoxy-phenyl]-amide]",4.5
19,"COc1cc2c(cc1OC)CN(CCc1ccc(-n3nnc(-c4cc(OC)c(OC)cc4NC(=O)c4ccoc4)n3)cc1)CC2 [Example 20, furan-3-carboxylic acid [2-(2-{4-[2-(6,7-dimethoxy-3,4-dihydro-1H-isoquinolin-2-yl)-ethyl]-phenyl}-2H-tetrazol-5-yl)-4,5-dimethoxy-phenyl]-amide]",3.5
20,"COc1cc2c(cc1OC)CN(CCc1ccc(-n3nnc(-c4cc(OC)c(OC)cc4NC(=O)c4cc(=O)c5ccccc5o4)n3)cc1)CC2 [Example 21, 4-oxo-4H-chromen-2-carboxylic acid [2-(2-{4-[2-(6,7-dimethoxy-3,4-dihydro-1H-isoquinolin-2-yl)-ethyl]-phenyl}-2H-tetrazol-5-yl)-4,5-dimethoxy-phenyl]-amide]",60.1
21,"COc1cc2c(cc1OC)CN(CCc1ccc(-n3nnc(-c4cc(OC)c(OC)cc4NC(=O)c4cc(=O)c5cc(C)ccc5o4)n3)cc1)CC2 [Example 22, 6-methyl-4-oxo-4H-chromene-2-carboxylic acid [2-(2-{4-[2-(6,7-dimethoxy-3,4-dihydro-1H-isoquinolin-2-yl)-ethyl]-phenyl}-2H-tetrazol-5-yl)-4,5-dimethoxy-phenyl]-amide]",73.4
22,"COc1cc2c(cc1OC)CN(CCc1ccc(-n3nnc(-c4cc(OC)c(OC)cc4NC(=O)c4cc(=O)c5c(OC)cccc5o4)n3)cc1)CC2 [Example 23, 5-methoxy-4-oxo-4H-chromene-2-carboxylic acid [2-(2-{4-[2-(6,7-dimethoxy-3,4-dihydro-1H-isoquinolin-2-yl)-ethyl]-phenyl}-2H-tetrazol-5-yl)-4,5-dimethoxy-phenyl]-amide]",49.9
23,"COc1cc2c(cc1OC)CN(CCc1ccc(-n3nnc(-c4cc(OC)c(OC)cc4NC(=O)c4cc(=O)c5cc(F)ccc5o4)n3)cc1)CC2 [Example 24, 6-fluoro-4-oxo-4H-chromene-2-carboxylic acid [2-(2-{4-[2-(6,7-dimethoxy-3,4-dihydro-1H-isoquinolin-2-yl)-ethyl]-phenyl}-2H-tetrazol-5-yl)-4,5-dimethoxy-phenyl]-amide]",39.3
24,"COc1cc2c(cc1OC)CN(CCc1ccc(-n3nnc(-c4cc(OC)c(OC)cc4NC(=O)c4cc(=O)c5cc(Br)ccc5o4)n3)cc1)CC2 [Example 25, 6-bromo-4-oxo-4H-chromene-2-carboxylic acid [2-(2-{4-[2-(6,7-dimethoxy-3,4-dihydro-1H-isoquinolin-2-yl)-ethyl]-phenyl}-2H-tetrazol-5-yl)-4,5-dimethoxy-phenyl]-amide]",28.6
25,"COc1cc2c(cc1OC)CN(CCc1ccc(-n3nnc(-c4cc(OC)c(OC)cc4NC(=O)c4cnnc5ccccc45)n3)cc1)CC2 [Example 26, cinoline-4-carboxylic acid [2-(2-{4-[2-(6,7-dimethoxy-3,4-dihydro-1H-isoquinolin-2-yl)-ethyl]-phenyl}-2H-tetrazol-5-yl)-4,5-dimethoxy-phenyl]-amide]",24.0
26,"COc1cc2c(cc1OC)CN(CCc1ccc(-n3nnc(-c4cc(OC)c(OC)cc4NC(=O)c4coc5ccccc5c4=O)n3)cc1)CC2 [Example 27, 4-oxo-4H-chromene-3-carboxylic acid [2-(2-{4-[2-(6,7-dimethoxy-3,4-dihydro-1H-isoquinolin-2-yl)-ethyl]-phenyl}-2H-tetrazol-5-yl)-4,5-dimethoxy-phenyl]-amide]",2.1
